According to US20170050957A1, “4-AMINO-6-(HETEROCYCLIC)PICOLINATES AND 6-AMINO-2-(HETEROCYCLIC)PYRIMIDINE-4-CARBOXYLATES AND THEIR USE AS HERBICIDES” (Dow AgroSciences LLC, priority 2013, published 2017):
Like-named read-outs stand apart in the source and are kept apart here.

Legend:
[1] = system: Key Broadleaf Weed and Crop Species; assay: Post-emergent Test II herbicidal activity (Table 15); type: in vivo; conditions: post-emergence, 336 h, 14 d; for pest or weed control at 35 g/ha: 35 g ai/ha; for pest or weed control at 70 g/ha: 70 g ai/ha; for pest or weed control at 140 g/ha: 140 g ai/ha
How it was run: (§1)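 Greenhouse-grown seedlings at first/second true leaf receive a track spray at 187 L/ha, using a highest rate plus two-fold serial dilutions down to 1/16×. Watering is by subirrigation to avoid wash-off. Percent injury (0-100) is judged by eye at 14 d against untreated plants.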

[2] = system: Key Grass and Sedge Weeds as well as Grass Crops; assay: Post-emergent Test II herbicidal activity (Table 16); type: in vivo; conditions: post-emergence, 336 h, 14 days after application; for pest or weed control at 35 g/ha: 35 g ai/ha; for pest or weed control at 70 g/ha: 70 g ai/ha; for pest or weed control at 140 g/ha: 140 g ai/ha
How it was run: as §1

[3] = Abutilon theophrasti, velvetleaf (Abutilon theophrasti), read-out: Visual Growth Reduction (%) 14 Days After Application, ABUTH
[4] = Amaranthus retroflexus, redroot pigweed (Amaranthus retroflexus), read-out: Visual Growth Reduction (%) 14 Days After Application, AMARE
[5] = Brassica napus, oilseed rape, canola (Brassica napus), read-out: Visual Growth Reduction (%) 14 Days After Application, BRSNN
[6] = Chenopodium album, lambsquarters (Chenopodium album), read-out: Visual Growth Reduction (%) 14 Days After Application, CHEAL
[7] = Euphorbia heterophylla, wild poinsettia (Euphorbia heterophylla), read-out: Visual Growth Reduction (%) 14 Days After Application, EPHHL
[8] = Helianthus annuus, sunflower (Helianthus annuus), read-out: Visual Growth Reduction (%) 14 Days After Application, HELAN
[9] = Cyperus esculentus, yellow nutsedge (Cyperus esculentus), read-out: Visual Growth Reduction (%) 14 Days After Application CYPES
[10] = Echinochloa crus-galli, barnyardgrass (Echinochloa crus-galli), read-out: Visual Growth Reduction (%) 14 Days After Application ECHCG
[11] = Oryza sativa, rice (Oryza sativa), read-out: Visual Growth Reduction (%) 14 Days After Application ORYSA
[12] = Setaria faberi, giant foxtail (Setaria faberi), read-out: Visual Growth Reduction (%) 14 Days After Application SETFA
[13] = Triticum aestivum, wheat, spring (Triticum aestivum), read-out: Visual Growth Reduction (%) 14 Days After Application TRZAS
[14] = Zea mays, maize, corn (Zea mays), read-out: Visual Growth Reduction (%) 14 Days After Application ZEAMX

In the case of COC(=O)c1nc(-c2ccc3cn[nH]c3c2)c(F)c(N)c1Cl [Compound 4.05], the pest or weed control at 35 g/ha [1, 3] is reported as 0 to 29%, the pest or weed control at 70 g/ha [1, 3] is reported as 0 to 29% and the pest or weed control at 140 g/ha [1, 3] is reported as 45 to 59%. The pest or weed control at 35 g/ha [1, 4] was 0 to 29%, the pest or weed control at 70 g/ha [1, 4] was 95 to 100% and the pest or weed control at 140 g/ha [1, 4] was 95 to 100%. It also gave a pest or weed control at 35 g/ha [1, 5] of 0 to 29%, a pest or weed control at 70 g/ha [1, 5] of 0 to 29% and a pest or weed control at 140 g/ha [1, 5] of 45 to 59%. It also gave a pest or weed control at 35 g/ha [1, 6] of 85 to 94%, a pest or weed control at 70 g/ha [1, 6] of 85 to 94% and a pest or weed control at 140 g/ha [1, 6] of 95 to 100%. For the same molecule, the pest or weed control at 35 g/ha [1, 7] was 60 to 74%, the pest or weed control at 70 g/ha [1, 7] was 95 to 100% and the pest or weed control at 140 g/ha [1, 7] was 95 to 100%. For the same molecule, the pest or weed control at 35 g/ha [1, 8] was 60 to 74%, the pest or weed control at 70 g/ha [1, 8] was 60 to 74% and the pest or weed control at 140 g/ha [1, 8] was 95 to 100%. The pest or weed control at 35 g/ha [2, 9] was 0 to 29%, the pest or weed control at 70 g/ha [2, 9] was 0 to 29% and the pest or weed control at 140 g/ha [2, 9] was 0 to 29%. For the same molecule, the pest or weed control at 140 g/ha [2, 10] was 85 to 94%, the pest or weed control at 35 g/ha [2, 11] was 0 to 29% and the pest or weed control at 70 g/ha [2, 11] was 0 to 29%. The pest or weed control at 140 g/ha [2, 11] was 0 to 29%, the pest or weed control at 140 g/ha [2, 12] was 95 to 100% and the pest or weed control at 35 g/ha [2, 13] was 0 to 29%. It also gave a pest or weed control at 70 g/ha [2, 13] of 0 to 29%, a pest or weed control at 140 g/ha [2, 13] of 0 to 29% and a pest or weed control at 35 g/ha [2, 14] of 0 to 29%. It also gave a pest or weed control at 70 g/ha [2, 14] of 60 to 74%, a pest or weed control at 140 g/ha [2, 14] of 60 to 74% and a melting point of 185 to 187 °C.
With COC(=O)c1nc(-c2cc3sccc3cc2F)c(F)c(N)c1Cl [Compound 3.14] the pest or weed control at 35 g/ha [1, 3] was 0 to 29%, the pest or weed control at 70 g/ha [1, 3] was 0 to 29% and the pest or weed control at 140 g/ha [1, 3] was 0 to 29%. For the same molecule, the pest or weed control at 35 g/ha [1, 4] was 85 to 94%, the pest or weed control at 70 g/ha [1, 4] was 95 to 100% and the pest or weed control at 140 g/ha [1, 4] was 95 to 100%. It also gave a pest or weed control at 35 g/ha [1, 5] of 0 to 29%, a pest or weed control at 70 g/ha [1, 5] of 0 to 29% and a pest or weed control at 140 g/ha [1, 5] of 0 to 29%. It also gave a pest or weed control at 35 g/ha [1, 6] of 85 to 94%, a pest or weed control at 70 g/ha [1, 6] of 85 to 94% and a pest or weed control at 140 g/ha [1, 6] of 95 to 100%. For the same molecule, the pest or weed control at 35 g/ha [1, 7] was 30 to 44%, the pest or weed control at 70 g/ha [1, 7] was 30 to 44% and the pest or weed control at 140 g/ha [1, 7] was 60 to 74%. It also gave a pest or weed control at 35 g/ha [1, 8] of 85 to 94%, a pest or weed control at 70 g/ha [1, 8] of 85 to 94% and a pest or weed control at 140 g/ha [1, 8] of 95 to 100%. The pest or weed control at 35 g/ha [2, 9] was 0 to 29%, the pest or weed control at 70 g/ha [2, 9] was 0 to 29% and the pest or weed control at 140 g/ha [2, 9] was 0 to 29%. The pest or weed control at 35 g/ha [2, 10] was 0 to 29%, the pest or weed control at 70 g/ha [2, 10] was 0 to 29% and the pest or weed control at 140 g/ha [2, 10] was 0 to 29%. It also gave a pest or weed control at 35 g/ha [2, 11] of 0 to 29%, a pest or weed control at 70 g/ha [2, 11] of 0 to 29% and a pest or weed control at 140 g/ha [2, 11] of 0 to 29%. The pest or weed control at 35 g/ha [2, 12] was 0 to 29%, the pest or weed control at 70 g/ha [2, 12] was 0 to 29% and the pest or weed control at 140 g/ha [2, 12] was 0 to 29%. The pest or weed control at 35 g/ha [2, 13] was 0 to 29%, the pest or weed control at 70 g/ha [2, 13] was 0 to 29% and the pest or weed control at 140 g/ha [2, 13] was 0 to 29%. It also gave a pest or weed control at 35 g/ha [2, 14] of 0 to 29%, a pest or weed control at 70 g/ha [2, 14] of 30 to 44% and a pest or weed control at 140 g/ha [2, 14] of 60 to 74%. It also gave a melting point of 112 °C.
